Data on one compound can be found in patent publication US8466291B2, “1,5-dideoxy-1,5-imino-D-glucitol compounds” (Academia Sinica, priority 2008, dated 2013).

One experiment addresses T1, Human O-GlcNAcase (Homo sapiens, UniProt O60502).
T1 construct: made in house
T1 sequence (O60502 1-916): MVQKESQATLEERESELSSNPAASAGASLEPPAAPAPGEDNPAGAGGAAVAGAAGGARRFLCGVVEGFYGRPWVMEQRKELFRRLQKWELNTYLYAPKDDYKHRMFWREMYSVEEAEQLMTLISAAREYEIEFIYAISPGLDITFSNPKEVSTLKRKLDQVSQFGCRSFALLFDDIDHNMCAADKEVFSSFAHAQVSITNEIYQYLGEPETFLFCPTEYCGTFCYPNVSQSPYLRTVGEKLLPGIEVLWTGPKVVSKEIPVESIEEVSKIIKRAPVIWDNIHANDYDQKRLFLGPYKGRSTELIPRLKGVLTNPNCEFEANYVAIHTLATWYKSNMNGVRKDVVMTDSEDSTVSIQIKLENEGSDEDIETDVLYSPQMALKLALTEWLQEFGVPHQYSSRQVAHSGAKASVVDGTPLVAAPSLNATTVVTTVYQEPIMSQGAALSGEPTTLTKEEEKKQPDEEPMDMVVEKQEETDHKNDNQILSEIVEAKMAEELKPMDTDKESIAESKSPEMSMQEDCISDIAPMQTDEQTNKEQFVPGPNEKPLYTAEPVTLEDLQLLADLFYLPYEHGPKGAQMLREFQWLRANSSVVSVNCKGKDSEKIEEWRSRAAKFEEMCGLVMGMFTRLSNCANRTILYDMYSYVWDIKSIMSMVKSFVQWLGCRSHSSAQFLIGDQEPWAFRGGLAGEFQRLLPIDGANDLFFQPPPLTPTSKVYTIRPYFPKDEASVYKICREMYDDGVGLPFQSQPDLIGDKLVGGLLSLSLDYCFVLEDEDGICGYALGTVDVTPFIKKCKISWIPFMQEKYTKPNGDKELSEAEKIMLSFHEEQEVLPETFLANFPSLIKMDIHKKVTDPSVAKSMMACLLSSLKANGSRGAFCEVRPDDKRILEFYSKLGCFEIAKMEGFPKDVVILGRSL
Kind of experiment: Inhibition of human O-GlcNAcase. Format: biochemical. Particulars: Table 2. As for the experimental part:
Human O-GlcNAcase was also prepared and tested according to the procedures described in Gao et al., J. Biol. Chem. 2001, 276, 9838-9845 and Macauley et al., J. Am. Chem. Soc. 2005, 127, 17202-17203.

Experiment [1] relates to BV2 cells (mouse microglia cells). Kind of experiment: GM2 ganglioside accumulation in BV2 microglia cells by Western blot. The format is cell-based. The note with it: different concentrations, 16 hr, Western blot with anti-Ganglioside asialo GM2 antibody. As for the experimental part:
BV2 cells (mouse microglia cells) were cultured in DMEM for 24 hr in 60-mm tissue culture dishes. The cells were washed once with PBS (pH 7.4), and 2 mL of fresh medium with or without biotin conjugated Compound 5 (at different concentrations) was added to each dish. After being incubated in a 5% CO2 incubator at 37° C. for 16 hr, the BV2 cells were harvested, re-suspended in a solution containing PBS and 2×SDS lysis buffer (250 mM Tris, pH 6.8/4% SDS/20% glycerol/0.002% bromophenol blue/10% 2-mercaptoethanol) at a ratio of 1:1 to produce whole cell lysates. The cell lysates were boiled and then subjected to SDS-PAGE (15%) using a mini-gel apparatus (Biorad, Germany). Substances contained in the gel were transferred to a nitrocellulose membrane (Millipore) at 1 mA/cm^2 using a semidry blot system (Biorad, Germany). The membrane was blocked with a Tris-buffered saline (TBST) (50 mM Tris-HCl, pH 7.5; 150 mM NaCl; 0.1% Tween-20) containing 5% skim-milk and then blotted with an anti-Ganglioside asialo GM2 antibody and an anti-GAPDH antibody.

Another experiment deals with T2, Human HEX B (Homo sapiens, UniProt P07686).
T2 construct: Hex B protein (isolated from human placenta) was purchased from Sigma Co; purchased Sigma Co; host or cells: human placenta
T2 sequence (P07686 315-556 limits assumed): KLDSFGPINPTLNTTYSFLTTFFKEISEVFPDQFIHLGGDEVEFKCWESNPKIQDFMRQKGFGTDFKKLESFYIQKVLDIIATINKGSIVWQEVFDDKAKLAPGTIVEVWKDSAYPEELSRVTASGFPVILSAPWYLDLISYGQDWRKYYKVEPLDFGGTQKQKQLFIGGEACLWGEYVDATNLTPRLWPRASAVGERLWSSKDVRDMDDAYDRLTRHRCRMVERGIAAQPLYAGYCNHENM
T2 sequence (P07686 122-311 limits assumed): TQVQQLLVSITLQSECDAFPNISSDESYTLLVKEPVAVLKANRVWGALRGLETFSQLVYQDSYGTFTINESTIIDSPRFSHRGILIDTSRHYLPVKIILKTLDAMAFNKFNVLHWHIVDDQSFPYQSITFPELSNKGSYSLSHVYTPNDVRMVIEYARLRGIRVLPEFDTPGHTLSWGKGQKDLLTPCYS
T2 sequence (P07686 50-107 partner limits assumed): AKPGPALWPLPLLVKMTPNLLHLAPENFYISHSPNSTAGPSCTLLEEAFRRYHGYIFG
The experiment in a line: Michaelis-Menten/Lineweaver-Burk kinetic inhibition of Hex B with 4MU-NAG substrate. Format: biochemical. As for the experimental part:
Hex B protein (isolated from human placenta) was purchased from Sigma Co.
Both O-GlcNAcase and Hex B were subjected to Michaelis-Menton kinetic analysis to determine the kinetics of their enzymatic activity in the presence of absence of Compounds 1-5 and Compound ix, using 4-methylumbelliferyl-N-acetyl-β-D-glucosaminide (4MU-NAG; purchased from Sigma Co.) as the substrate (a fluorogenic substrate). The reaction conditions for each enzyme are shown below:
Hex B: reaction mixture (0.1 nM Hex B (200 μL), 50 mM NaH2PO4, 100 mM NaCl, 0.1% BSA, 0.05-1.5 mM substrate, pH 6.5) was incubated at 30° C. for 25 minutes. The reaction was terminated by addition of a 3× quenching buffer (200 mM sodium glycine buffer, pH 10.8). The enzyme activity was determined as described above.
To determine the effects of Compounds 1-5 and Compound ix on the kinetics of both enzymes, the enzyme reactions described above were performed in the presence of each compound at different concentrations. In these reactions, the substrate concentrations were three to five fold of the concentration used for determining KM (absent compounds) and the ratio between the enzyme and the compound was 0.1-0.5 nM to 0.3 nM-200 uM. The data thus obtained were analyzed by the Lineweaver-Burk plot. The K1 values were determined by the double reciprocal plot (1/V vs. 1/[S]). More specifically, the Km values for each enzyme in the presence of one of the test compounds first determined and these values were further plotted in view of the concentrations of the compound. K1 was determined by calculating the negative value of the resulting x-intercept. The selectivity of each compound was calculated by the formula: K1 O-GlcNAcase/K1 Hex B.

For `CC(=O)NC1CN(CCCCCCCNC(=O)CCCCC2SCC3NC(=O)NC32)C(CO)C(O)C1O` (centres unmarked) [Compound 5], the “Selectivity (KI O-GlcNAcase/KI HEX)” value at Human O-GlcNAcase (Human O-GlcNAcase over human HEX B) was 5,400. Moreover, the Ki on Human O-GlcNAcase (Human O-GlcNAcase) was 145000 ± 1770 nM; at Human HEX B (Table 1), 26.7 ± 1.11 nM; at Human HEX B (Table 2) it was 26.7 ± 1.11 nM. For the same compound, the “ganglioside GM2 accumulation” value in experiment [1] is “accumulated in Compound 5-treated BV2 cells in a dose-dependent manner”.
